Data taken from patent US20080118449A1, “COSMETIC FORMULATIONS OF PICEATANNOL AND RETINOIDS AND METHODS OF USE THEREOF” (priority 2006, published 2008).

How the values were obtained:
[1] = system: skin of the upper outer arm of 16 human volunteers; assay: Skin irritant potential, modified human 4-h patch test; type: in vivo
Protocol: The skin irritant potential of the cosmetic compositions of Example 1 and Comparative Example 1 and 2 were determined using a modification of the human 4-h patch test (Basketter D A, et al., Food Chem Toxicol 1997,:35: 845-852), involving application of 0.2 ml of the composition to be tested on a 25 mm plain Hill Top Chamber containing a Webril pad (Hill Top Companies, Cincinatti, Ohio, USA) to the skin of the upper outer arm of 16 human volunteers. Both upper arms of the panelist were used. Patches were applied in a balanced random order.
After 24 hours, the patches were removed and then the test areas were marked with a marking pen. After each lapse of 24, 48 and 72 hours, the test areas were observed and treatment sites were assessed for the presence of irritation using a 4 point scale (Table 2) at 24, 48 and 72 h after patch removal

[2] = system: skin wrinkles on the face of female subjects; assay: Skin wrinkle improvement by computer aided laser profilometry (Skin Visiometer, silicone replicas); type: in vivo, human; conditions: 9 weeks
Protocol: The effects of the cosmetic compositions of Example 1 and Comparative Example 1 and 2 on skin wrinkle improvement were determined by computer aided laser profilometry.
It involved sixteen female subjects of 30 years and over. The cosmetic compositions of Example 1 and Comparative Examples 1 and 2 were applied on the face (area of 2×2 cm2) of the test subjects, once a day with dose of 0.05 g for 9 weeks. Then, replicas of their skin wrinkles were prepared using white plastic silicon precision moulding compound. The changes in the skin wrinkles of the replicas were detected with Skin Visiometer (SV600 manufactured by Courage+Khazaka electronic GmbH, Germany). Three-dimensional images of the replicas were analyzed with a CCD camera. The skin wrinkle improvement effect was determined as average roughness of the wrinkles (Rz) according to the following numerical formula I:
Rz=(R1+R2+ . . . +Rn−1+Rn)/Number of wrinkles(n) (I)
Wherein, Rn is the roughness of each wrinkle and n is the number of the wrinkles.

[3] = lotion type cosmetic preparation, 0.20 wt% with 0.20 wt% retinyl palmitate
[4] = solution type formulation, 0.2 wt% with 0.2 wt% retinyl palmitate
[5] = emulsion (lotion) type formulation

OC[C@H]1O[C@@H](Oc2cc(O)cc(/C=C/c3ccc(O)c(O)c3)c2)[C@H](O)[C@@H](O)[C@@H]1O (relative stereo) [astringin, trans-(3,5,3′,4′-tetrahydroxystilbene)-3-O-beta-d-glucopyranoside]
effect of addition on irritancy of retinyl palmitate [1, 3]: clearly reduced the irritancy of retinyl palmitate
effect of addition on irritancy of retinyl palmitate [1, 4]: clearly reduced the irritancy of retinyl palmitate
effect on retinoid wrinkle improvement [2, 5]: enhances the effect of retinol on wrinkle improvement
efficiency relative to piceatannol on wrinkle improvement ([2]; emulsion type cosmetic preparations): seems to be m ore efficient than piceatannol
effect on retinoid wrinkle improvement ([2]; solution type formulation): enhances the effect of retinol on wrinkle improvement

Oc1cc(O)cc(/C=C/c2ccc(O)c(O)c2)c1 [piceatannol, trans-3,4,3′,5′-tetrahydroxystilbene]
effect of addition on irritancy of retinyl palmitate [1, 3]: clearly reduced the irritancy of retinyl palmitate
effect of addition on irritancy of retinyl palmitate [1, 4]: clearly reduced the irritancy of retinyl palmitate
effect on retinoid wrinkle improvement [2, 5]: enhances the effect of retinol on wrinkle improvement
effect on retinoid wrinkle improvement ([2]; solution type formulation): enhances the effect of retinol on wrinkle improvement
